Source: paper PMC11542830, “3-nitropyridine analogues as novel microtubule-targeting agents” (PLOS ONE, 2024)

Experiments:
HCT-116 = assay: NCI60 5-dose screen, HCT-116; format: cell-based; settings: Homo sapiens, colon cancer, Fig 1D, read-out: Log10 GI50 (HCT-116) (converted)
Protocol: (§1) The screening methodology used in the NCI60 Cell 5-Doses screen is described in detail at https://dtp.cancer.gov/discovery_development/nci-60/methodology.htm. Briefly, cells are seeded in 96 well plates at an appropriate density and incubated for 1 day. After 1 day, some of the plates are processed to determine a time zero density. To the remaining plates, compounds are added over a 5-log M concentration range (1 log dilutions from 10^-4M to 10^-8M). Plates are incubated for two additional days, then fixed and stained with sulforhodamine B. Growth inhibition is calculated relative to cells without drug treatment and the time zero control. The GI50 is the concentration of a compound that causes 50% growth inhibition, relative to the no drug control.

Jurkat cells = assay: Cell cycle analysis (DAPI, high content imaging), Jurkat; format: cell-based, human; settings: 24 hours
Protocol: Cell viability in cancer cell lines treated with compound was measured in a 3-day MTS cell proliferation assay using the CellTiter 96 AQueous Non-Radioactive Cell Proliferation Assay reagent (Promega) according to the manufacturer’s instructions. Absorbance was read at 490 nm on a SaFire II microplate reader (Tecan). CC50 values were calculated by fitting the obtained MTS cell viability data in GraphPad Prism using a 4-parameter log–based fit for inhibitors. Apoptosis induction and cell death upon compound treatment in PBMC was measured using the Alexa Fluor 488 Annexin V/Dead Cell Apoptosis Kit (Thermo Fisher Scientific), with readout on a FACSCanto II flow cytometer (BD Biosciences). For cell cycle analysis, Jurkat cells were seeded at 400,000 cells per well in 12-well tissue culture plates and treated with the test compounds at the indicated concentrations for 24 h. Cells were then harvested by centrifugation at 400 x g, washed in PBS and transferred to an 8-well μ-Slide (Ibidi) that had been pretreated with 0.1% (w/v) poly-L-lysine (Sigma). Cells were allowed to adhere to the slides, fixed with 4% PFA in PBS for 10 minutes, washed and stained with DAPI. […] The compounds were evaluated in duplo in two independent experiments.

RPMI-8226 = assay: NCI60 5-dose screen, RPMI-8226; format: cell-based; settings: Homo sapiens, leukemia, Fig 1D, read-out: Log10 GI50 (RPMI-8226) (converted)
Protocol: as §1

IGROV1 = assay: NCI60 5-dose screen, IGROV1; format: cell-based; settings: Homo sapiens, IGROV-1; ovarian cancer; Fig 1D; read-out: Log10 GI50 (IGROV1) (converted)
Protocol: as §1

U251 = assay: NCI60 5-dose screen, U251; format: cell-based; settings: Homo sapiens, U-251; CNS cancer; Fig 1D; read-out: Log10 GI50 (U251) (converted)
Protocol: as §1

SK-OV-3 = assay: NCI60 5-dose screen, SK-OV-3; format: cell-based; settings: Homo sapiens, ovarian cancer, Fig 1D, read-out: Log10 GI50 (SK-OV-3) (converted)
Protocol: as §1

HCT-116 cells = assay: 3-day MTS cell viability assay, HCT-116; format: cell-based; settings: Homo sapiens, 72 hours, Fig 1C
Protocol: All cancer cell lines (HT-29: colorectal adenocarcinoma, HCT-116: colorectal carcinoma, A549: lung epithelial carcinoma, PC3: prostate adenocarcinoma, Jurkat: acute T-cell leukemia, BC-1: primary effusion lymphoma) and the normal human embryonal lung fibroblast cell line MRC-5 were acquired from the American Type Culture Collection (ATCC). All cell lines were cultured as recommended by the suppliers. Culture media were purchased from Gibco (Thermo Fisher Scientific) and supplemented with 10 to 20% fetal bovine serum (HyClone, GE Healthcare Life Sciences) and 20–25 μg/mL gentamicin (Gibco, Thermo Fisher Scientific). […]
Cell viability in cancer cell lines treated with compound was measured in a 3-day MTS cell proliferation assay using the CellTiter 96 AQueous Non-Radioactive Cell Proliferation Assay reagent (Promega) according to the manufacturer’s instructions. Absorbance was read at 490 nm on a SaFire II microplate reader (Tecan). CC50 values were calculated by fitting the obtained MTS cell viability data in GraphPad Prism using a 4-parameter log–based fit for inhibitors. Apoptosis induction and cell death upon compound treatment in PBMC was measured using the Alexa Fluor 488 Annexin V/Dead Cell Apoptosis Kit (Thermo Fisher Scientific), with readout on a FACSCanto II flow cytometer (BD Biosciences). […] The compounds were evaluated in duplo in two independent experiments.

MDA-MB-468 = assay: NCI60 5-dose screen, MDA-MB-468; format: cell-based; settings: Homo sapiens, breast cancer, Fig 1D, read-out: Log10 GI50 (MDA-MB-468) (converted)
Protocol: as §1

SN12C = assay: NCI60 5-dose screen, SN12C; format: cell-based; settings: Homo sapiens, renal cancer, Fig 1D, read-out: Log10 GI50 (SN12C) (converted)
Protocol: as §1

SK-MEL-2 = assay: NCI60 5-dose screen, SK-MEL-2; format: cell-based; settings: Homo sapiens, melanoma, Fig 1D, read-out: Log10 GI50 (SK-MEL-2) (converted)
Protocol: as §1

NCI-H460 = assay: NCI60 5-dose screen, NCI-H460; format: cell-based; settings: Homo sapiens, non-small cell lung cancer, Fig 1D, read-out: Log10 GI50 (NCI-H460) (converted)
Protocol: as §1

UO-31 = assay: NCI60 5-dose screen, UO-31; format: cell-based; settings: Homo sapiens, renal cancer, Fig 1D, read-out: Log10 GI50 (UO-31) (converted)
Protocol: as §1

SNB-75 = assay: NCI60 5-dose screen, SNB-75; format: cell-based; settings: Homo sapiens, CNS cancer, Fig 1D, read-out: Log10 GI50 (SNB-75) (converted)
Protocol: as §1

ACHN = assay: NCI60 5-dose screen, ACHN; format: cell-based; settings: Homo sapiens, renal cancer, Fig 1D, read-out: Log10 GI50 (ACHN) (converted)
Protocol: as §1

SF-268 = assay: NCI60 5-dose screen, SF-268; format: cell-based; settings: Homo sapiens, CNS cancer, Fig 1D, read-out: Log10 GI50 (SF-268) (converted)
Protocol: as §1

HOP-62 = assay: NCI60 5-dose screen, HOP-62; format: cell-based; settings: Homo sapiens, non-small cell lung cancer, Fig 1D, read-out: Log10 GI50 (HOP-62) (converted)
Protocol: as §1

NCI-H522 = assay: NCI60 5-dose screen, NCI-H522; format: cell-based; settings: Homo sapiens, non-small cell lung cancer, Fig 1D, read-out: Log10 GI50 (NCI-H522) (converted)
Protocol: as §1

DU-145 = assay: NCI60 5-dose screen, DU-145; format: cell-based; settings: Homo sapiens, prostate cancer, Fig 1D, read-out: Log10 GI50 (DU-145) (converted)
Protocol: as §1

KM12 = assay: NCI60 5-dose screen, KM12; format: cell-based; settings: Homo sapiens, colon cancer, Fig 1D, read-out: Log10 GI50 (KM12) (converted)
Protocol: as §1

Structure (SMILES) | GI50 (HCT-116) [nM] | effect on cell cycle progression (Jurkat cells) | GI50 (RPMI-8226) [nM] | GI50 (IGROV1) [nM] | GI50 (U251) [nM] | GI50 (SK-OV-3) [nM] | IC50 (HCT-116 cells) [nM] | GI50 (MDA-MB-468) [nM] | GI50 (SN12C) [nM] | GI50 (SK-MEL-2) [nM] | GI50 (NCI-H460) [nM] | GI50 (UO-31) [nM] | GI50 (SNB-75) [nM] | GI50 (ACHN) [nM] | GI50 (SF-268) [nM] | GI50 (HOP-62) [nM] | GI50 (NCI-H522) [nM] | GI50 (DU-145) [nM] | GI50 (KM12) [nM]
Cc1ccnc(Nc2ccc([N+](=O)[O-])c(NCCN3CCOCC3)n2)c1 [Compound 4AZA2996, N^6-(4-methylpyridin-2-yl)-N^2-(2-morpholinoethyl)-3-nitropyridine-2,6-diamine] | < 10 | induce G2 cell cycle arrest | 26.9 | 57.5 | < 10 | < 10 | 10 | 27.5 | 47.9 | 30.2 | < 10 | < 10 | < 10 | < 10 | 58.9 | < 10 | < 10 | 25.7 | < 10
Cc1cc(C)cc(Nc2ccc([N+](=O)[O-])c(NCCN3CCOCC3)n2)c1 [Compound 4AZA2891, 6-(3,5-dimethylanilino)-2-(2-morpholinoethylamino)-3-nitropyridine] | 14.8 | induce G2 cell cycle arrest | 36.3 | 49 | 30.9 | 58.9 | 17.4 | < 10 | 70.8 | 34.7 | 17.4 | 1380 | < 10 | 12 | 135 | 30.2 | < 10 | 41.7 | < 10
